Measured values from ChEMBL document CHEMBL1201862, “PubChem BioAssay data set” (2004).
Calls of active or inactive are those of the source.

Key:
[1] = target: T1, Zinc finger protein mex-5 (Caenorhabditis elegans, UniProt Q9XUB2); assay: MEX-5/TCR-2 RNA interaction inhibitors, dose response, biochemical, C. elegans, fluorescence polarization (AID 1960)
T1 sequence (Q9XUB2 whole entry): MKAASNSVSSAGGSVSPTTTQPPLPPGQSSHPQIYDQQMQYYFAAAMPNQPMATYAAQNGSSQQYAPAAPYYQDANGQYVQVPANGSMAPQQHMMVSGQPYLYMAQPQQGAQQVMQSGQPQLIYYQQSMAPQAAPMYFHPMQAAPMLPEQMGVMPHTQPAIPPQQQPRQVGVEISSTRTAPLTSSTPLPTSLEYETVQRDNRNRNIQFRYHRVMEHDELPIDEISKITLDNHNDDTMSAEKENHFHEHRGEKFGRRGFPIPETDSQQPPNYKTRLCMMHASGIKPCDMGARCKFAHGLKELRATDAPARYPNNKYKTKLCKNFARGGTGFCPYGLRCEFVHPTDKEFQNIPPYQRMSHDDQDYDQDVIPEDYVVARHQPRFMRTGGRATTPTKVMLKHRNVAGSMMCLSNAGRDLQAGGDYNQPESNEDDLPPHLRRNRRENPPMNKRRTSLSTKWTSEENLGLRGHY

[2] = target: T2, RNA-binding protein pos-1 (Caenorhabditis elegans, UniProt G5EF15); assay: inhibitors of POS-1/mex-3 RNA binding, dose response, biochemical, fluorescence polarization (AID 1964);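 note: purified POS-1 fused to maltose binding protein made in E. coli; potency of compounds blocking POS-1 binding to fluorescent RNA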
T2 sequence (G5EF15 whole entry): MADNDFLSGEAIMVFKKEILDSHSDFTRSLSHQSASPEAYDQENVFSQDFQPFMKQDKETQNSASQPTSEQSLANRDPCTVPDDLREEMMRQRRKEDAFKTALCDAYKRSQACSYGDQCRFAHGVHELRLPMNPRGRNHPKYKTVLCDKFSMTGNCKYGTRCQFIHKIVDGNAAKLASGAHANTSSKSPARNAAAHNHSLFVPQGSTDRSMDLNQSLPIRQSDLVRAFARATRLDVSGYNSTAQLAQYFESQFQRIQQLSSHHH

[3] = target: T3, Endoribonuclease toxin MazF (Escherichia coli K-12, UniProt P0AE70); assay: MazF toxin RNase activators, dose response, biochemical, fluorescence, single-stranded RNA substrate, uHTS hits (AID 588481); type: functional
T3 sequence (P0AE70 whole entry): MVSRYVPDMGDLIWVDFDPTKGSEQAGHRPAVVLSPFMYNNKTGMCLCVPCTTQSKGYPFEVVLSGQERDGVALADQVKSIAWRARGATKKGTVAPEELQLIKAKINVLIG

[4] = target: T3, Endoribonuclease toxin MazF; assay: fluorescent RNA oligo signal without MazF, dose response, counter-screen for MazEF activator project, biochemical, fluorescence, single-stranded RNase substrate (AID 588502); type: functional
[5] = target: T3, Endoribonuclease toxin MazF; assay: MazF endoribonuclease activators, SAR follow-up, biochemical, fluorescence, single-stranded RNA substrate (AID 588603); type: functional
MEF = assay: SAR analysis of small molecule cytotoxicity of MazEF TA System activators in embryonic fibroblast (MEF) cells. [Related pubchem assays (depositor defined):AID504720, AID504743]; type: functional; conditions: Mus musculus
Genome polyprotein = Genome polyprotein (dengue virus type 2, UniProt P29990); assay: Dengue-2 NS5 methyltransferase inhibitors, primary screen, biochemical, confirmation dose response (AID 588689); type: functional
Sequence of Genome polyprotein (P29990 2492-3391 limits assumed): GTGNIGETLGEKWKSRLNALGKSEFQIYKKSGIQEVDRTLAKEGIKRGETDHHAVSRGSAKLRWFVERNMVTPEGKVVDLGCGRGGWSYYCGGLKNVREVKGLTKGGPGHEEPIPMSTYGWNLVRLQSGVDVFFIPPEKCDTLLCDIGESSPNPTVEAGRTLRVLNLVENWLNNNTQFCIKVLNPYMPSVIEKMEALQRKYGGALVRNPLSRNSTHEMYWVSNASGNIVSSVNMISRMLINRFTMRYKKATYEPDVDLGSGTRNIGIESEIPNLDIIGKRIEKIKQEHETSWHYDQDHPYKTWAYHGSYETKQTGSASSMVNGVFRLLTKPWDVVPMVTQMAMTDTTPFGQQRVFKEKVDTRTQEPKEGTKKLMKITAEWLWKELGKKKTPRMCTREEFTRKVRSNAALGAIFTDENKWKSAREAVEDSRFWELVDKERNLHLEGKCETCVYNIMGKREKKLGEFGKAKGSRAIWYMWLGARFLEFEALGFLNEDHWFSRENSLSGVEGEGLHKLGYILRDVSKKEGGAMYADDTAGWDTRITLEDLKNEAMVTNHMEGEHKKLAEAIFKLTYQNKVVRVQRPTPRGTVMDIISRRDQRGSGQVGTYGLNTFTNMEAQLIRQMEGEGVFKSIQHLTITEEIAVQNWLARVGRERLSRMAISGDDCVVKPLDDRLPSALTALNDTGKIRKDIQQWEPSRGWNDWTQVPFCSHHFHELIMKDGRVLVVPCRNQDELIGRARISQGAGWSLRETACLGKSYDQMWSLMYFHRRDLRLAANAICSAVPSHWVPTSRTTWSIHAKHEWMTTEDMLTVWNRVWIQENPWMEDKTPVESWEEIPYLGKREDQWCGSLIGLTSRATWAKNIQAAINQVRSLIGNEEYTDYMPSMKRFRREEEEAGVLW

[6] = target: T3, Endoribonuclease toxin MazF; assay: SAR analysis of small molecule activators of the MazEF TA System via a fluorescence-based single-stranded RNase assay counterscreen. [Related pubchem assays (depositor defined):AID504720, AID504743]; type: functional
[7] = target: DNA dC->dU-editing enzyme APOBEC-3G (Homo sapiens, UniProt Q9HC16); assay: APOBEC3G deaminase inhibitors, SAR follow-up, biochemical, fluorescence, single-stranded DNA substrate (AID 602136); type: functional; conditions: read-out: IC50_Mean
Sequence of DNA dC->dU-editing enzyme APOBEC-3G (Q9HC16 whole entry): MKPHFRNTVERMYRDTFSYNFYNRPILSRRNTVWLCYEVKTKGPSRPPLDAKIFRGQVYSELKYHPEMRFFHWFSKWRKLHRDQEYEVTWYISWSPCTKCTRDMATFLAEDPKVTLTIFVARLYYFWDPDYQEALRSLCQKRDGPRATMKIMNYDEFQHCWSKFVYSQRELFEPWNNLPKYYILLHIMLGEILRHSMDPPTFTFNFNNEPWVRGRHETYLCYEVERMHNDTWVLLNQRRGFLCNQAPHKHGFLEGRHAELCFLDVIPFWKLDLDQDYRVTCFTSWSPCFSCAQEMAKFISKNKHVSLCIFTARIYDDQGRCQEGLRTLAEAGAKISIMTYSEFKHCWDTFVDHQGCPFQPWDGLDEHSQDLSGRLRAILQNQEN

[8] = target: DNA dC->dU-editing enzyme APOBEC-3A (Homo sapiens, UniProt P31941); assay: SAR analysis of small molecule inhibitors of APOBEC3A DNA Deaminase via a fluorescence-based single-stranded DNA deaminase assay.; type: functional; conditions: read-out: IC50_Mean
Sequence of DNA dC->dU-editing enzyme APOBEC-3A (P31941 whole entry): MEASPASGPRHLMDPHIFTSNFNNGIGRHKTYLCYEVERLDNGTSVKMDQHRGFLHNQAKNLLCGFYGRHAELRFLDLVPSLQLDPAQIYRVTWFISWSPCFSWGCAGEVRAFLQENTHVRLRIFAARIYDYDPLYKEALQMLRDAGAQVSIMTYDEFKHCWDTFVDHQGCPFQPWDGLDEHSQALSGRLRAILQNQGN

Caspase-3 [9] = target: T4, Caspase-3 (Homo sapiens, UniProt P42574); assay: SAR Analysis of small molecule inhibitors of Sentrin-specific proteases (SENPs) using a Caspase-3 Selectivity assay. [Related pubchem assays (depositor defined):AID2540, AID2599, AID434973, AID489001]; type: functional
T4 sequence (P42574 whole entry): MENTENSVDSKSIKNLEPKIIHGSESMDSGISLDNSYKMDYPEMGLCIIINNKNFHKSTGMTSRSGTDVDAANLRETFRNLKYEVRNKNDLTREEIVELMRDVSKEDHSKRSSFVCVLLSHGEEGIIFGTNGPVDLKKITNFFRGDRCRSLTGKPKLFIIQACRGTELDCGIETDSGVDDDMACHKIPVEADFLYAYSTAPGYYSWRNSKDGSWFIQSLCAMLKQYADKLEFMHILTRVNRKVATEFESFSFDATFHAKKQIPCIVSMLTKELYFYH

[10] = target: T5, Sentrin-specific protease 6 (Homo sapiens, UniProt Q9GZR1); assay: SENP6 protease inhibitors, SAR follow-up, biochemical, luminescence, set 2 (AID 588598); type: functional
T5 sequence (Q9GZR1 whole entry): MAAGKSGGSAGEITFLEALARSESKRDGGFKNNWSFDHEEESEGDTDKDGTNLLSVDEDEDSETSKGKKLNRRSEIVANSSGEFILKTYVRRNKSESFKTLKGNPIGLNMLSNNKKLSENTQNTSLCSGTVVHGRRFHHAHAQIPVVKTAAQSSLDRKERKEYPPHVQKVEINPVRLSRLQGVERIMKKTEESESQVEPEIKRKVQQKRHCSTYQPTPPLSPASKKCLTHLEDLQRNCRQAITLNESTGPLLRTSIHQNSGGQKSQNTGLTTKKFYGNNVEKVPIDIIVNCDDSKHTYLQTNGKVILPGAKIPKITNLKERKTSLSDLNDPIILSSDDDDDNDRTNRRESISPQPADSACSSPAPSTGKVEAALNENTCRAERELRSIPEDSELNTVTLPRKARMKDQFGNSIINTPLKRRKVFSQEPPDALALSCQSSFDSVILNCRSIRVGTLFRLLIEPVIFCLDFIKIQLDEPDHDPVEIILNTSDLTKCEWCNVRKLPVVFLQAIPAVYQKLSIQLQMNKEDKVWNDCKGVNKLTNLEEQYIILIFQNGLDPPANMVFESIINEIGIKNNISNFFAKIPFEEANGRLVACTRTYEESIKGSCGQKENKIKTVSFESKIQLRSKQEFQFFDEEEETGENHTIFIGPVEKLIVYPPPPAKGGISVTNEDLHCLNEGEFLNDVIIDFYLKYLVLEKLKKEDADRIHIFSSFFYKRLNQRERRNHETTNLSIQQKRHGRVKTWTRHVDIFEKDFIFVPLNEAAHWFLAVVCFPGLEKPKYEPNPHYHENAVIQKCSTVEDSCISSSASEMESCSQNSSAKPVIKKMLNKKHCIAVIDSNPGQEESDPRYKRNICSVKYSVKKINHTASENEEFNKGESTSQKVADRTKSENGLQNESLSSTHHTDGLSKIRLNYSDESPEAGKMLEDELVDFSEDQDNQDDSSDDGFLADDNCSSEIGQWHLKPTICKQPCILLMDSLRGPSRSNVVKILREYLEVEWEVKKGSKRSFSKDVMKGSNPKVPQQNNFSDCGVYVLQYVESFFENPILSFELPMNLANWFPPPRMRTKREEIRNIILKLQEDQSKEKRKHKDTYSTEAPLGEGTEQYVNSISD

[11] = target: T6, Sentrin-specific protease 8 (Homo sapiens, UniProt Q96LD8); assay: SENP8 protease inhibitors, SAR follow-up, biochemical, luminescence (AID 504501); type: functional
T6 sequence (Q96LD8 whole entry): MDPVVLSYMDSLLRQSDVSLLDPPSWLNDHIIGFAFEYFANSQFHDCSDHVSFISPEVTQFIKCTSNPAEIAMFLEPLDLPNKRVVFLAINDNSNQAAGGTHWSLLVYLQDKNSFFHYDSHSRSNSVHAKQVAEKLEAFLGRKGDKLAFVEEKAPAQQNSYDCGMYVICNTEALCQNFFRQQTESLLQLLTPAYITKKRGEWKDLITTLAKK

[12] = target: T6, Sentrin-specific protease 8; assay: SENP8 protease inhibitors, SAR follow-up, biochemical, luminescence, set 2 (AID 588601); type: functional
[13] = target: T5, Sentrin-specific protease 6; assay: SAR Analysis of small molecule inhibitors of Sentrin-specific protease 6 (SENP6) using a Luminescent assay. [Related pubchem assays (depositor defined):AID2582, AID2599]; type: functional
[14] = target: T7, Sentrin-specific protease 7 (Homo sapiens, UniProt Q9BQF6); assay: SENP7 protease inhibitors, SAR follow-up, biochemical, luminescence (AID 504497); type: functional
T7 sequence (Q9BQF6 whole entry): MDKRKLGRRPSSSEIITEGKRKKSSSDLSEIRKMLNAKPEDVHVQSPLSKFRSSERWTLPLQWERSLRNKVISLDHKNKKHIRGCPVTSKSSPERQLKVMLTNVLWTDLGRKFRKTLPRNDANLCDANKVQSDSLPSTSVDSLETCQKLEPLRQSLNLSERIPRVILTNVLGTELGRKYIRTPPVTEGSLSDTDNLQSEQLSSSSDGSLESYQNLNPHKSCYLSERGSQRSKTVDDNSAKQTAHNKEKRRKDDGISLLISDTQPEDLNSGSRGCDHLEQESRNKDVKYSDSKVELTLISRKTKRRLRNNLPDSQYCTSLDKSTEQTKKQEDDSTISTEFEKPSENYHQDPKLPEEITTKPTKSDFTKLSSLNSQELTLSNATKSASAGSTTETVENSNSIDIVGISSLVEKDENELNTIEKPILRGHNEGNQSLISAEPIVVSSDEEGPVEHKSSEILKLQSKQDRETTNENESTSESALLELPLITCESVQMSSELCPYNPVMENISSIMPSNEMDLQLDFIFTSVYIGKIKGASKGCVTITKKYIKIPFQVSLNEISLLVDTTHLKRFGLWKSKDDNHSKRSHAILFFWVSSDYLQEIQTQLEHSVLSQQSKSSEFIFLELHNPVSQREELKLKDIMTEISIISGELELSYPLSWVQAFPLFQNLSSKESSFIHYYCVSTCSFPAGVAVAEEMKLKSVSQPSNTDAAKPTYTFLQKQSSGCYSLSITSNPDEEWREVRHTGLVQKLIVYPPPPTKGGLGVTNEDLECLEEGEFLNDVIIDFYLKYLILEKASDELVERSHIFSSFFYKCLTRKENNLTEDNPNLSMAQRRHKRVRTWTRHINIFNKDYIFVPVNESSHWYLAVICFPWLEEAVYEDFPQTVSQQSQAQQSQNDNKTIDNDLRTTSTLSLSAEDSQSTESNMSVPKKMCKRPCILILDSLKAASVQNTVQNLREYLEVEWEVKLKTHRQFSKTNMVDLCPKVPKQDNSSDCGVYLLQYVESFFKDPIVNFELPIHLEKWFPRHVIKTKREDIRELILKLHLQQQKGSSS

Caspase-3 [15] = target: T4, Caspase-3; assay: caspase-3 inhibitors as off-family protease, SAR follow-up, selectivity assay for SENP protease inhibitor project, biochemical, luminescence, set 2 (AID 588599); type: functional
[16] = target: T7, Sentrin-specific protease 7; assay: SENP7 protease inhibitors, SAR follow-up, biochemical, luminescence, set 2 (AID 588600); type: functional

C=CCOc1cccc(C2C(C(=O)c3ccc(C)o3)=C(O)C(=O)N2c2nccs2)c1 (stereo not drawn)
EC50 [1]: 0.851 µM (active)
EC50 [2]: > 300 µM (inconclusive)
EC50 [3]: 11.4 µM (active)
EC50 [4]: > 99 µM (inactive)
EC50 [5]: 22.3 µM (inactive)
CC50 (MEF): > 99 µM (inactive)
IC50 (Genome polyprotein): 5.64 µM (active)
EC50 [6]: 44.5 µM (inactive)

Fc1ccc(Nc2nc(Nc3ccc(Cl)c(Cl)c3)nc(N3CCOCC3)n2)cc1
IC50 [7]: > 99 µM (inactive)
IC50 [8]: > 99 µM (inactive)

CCCCc1ccc2nc(NC(=O)c3cc(C)cs3)sc2c1
IC50 (Caspase-3 [9]): 51 µM (active)
IC50 [10]: 8.58 µM (active)
IC50 [11]: > 99 µM (inactive)
IC50 [12]: 8.25 µM (active)
IC50 [13]: > 99 µM (inactive)
IC50 [14]: 6.4 µM (active)
IC50 (Caspase-3 [15]): 68.4 µM (active)
IC50 [16]: 29.4 µM (active)
